Patent US20050209216A1, “Phenyl-and pyridyl-diazaheterocycles having a tnf-modulating activity” (priority 2002, published 2005)
Where a name gives a salt, the structure may show the parent alone.

SMILES | melting point [°C]
Clc1cccc(N2CC3CCC(C2)N3CCc2ccc3ccncc3c2)n1 | 141 to 142
FC(F)(F)c1cccc(N2C3CCC2CN(CCc2ccc4ccncc4c2)C3)c1 (as salt: hydrochloride) (hydrate or solvate) | 151 to 153
FC(F)(F)c1cccc(N2CC3CCC(C2)N3CCc2ccc3ccncc3c2)n1 (as salt: hydrochloride) (hydrate or solvate) | 258 to 260
FC(F)(F)c1cccc(N2C3CCC2CN(CCc2ccc4ccncc4c2)C3)n1 (as salt: hydrochloride) (hydrate or solvate) | 158 to 160
Clc1cccc(N2CCN(CCc3ccc4ccncc4c3)CC2)n1 (as salt: hydrochloride) (hydrate or solvate) [Example 3] | 108 to 110
FC(F)(F)c1cccc(N2CCN(CCc3ccc4cccnc4c3)CC2)n1 (as salt: hydrochloride) [Example 11] | 228 to 230
FC(F)(F)c1ccc(N2CCN(CCc3ccc4cccnc4c3)CC2)nc1 (as salt: hydrochloride) [Example 12] | 108 to 110
FC(F)(F)c1cccnc1N1CCN(CCc2ccc3cccnc3c2)CC1 (as salt: hydrochloride) [Example 13] | 163 to 164
FC(F)(F)c1cccc(N2CC3CCC(C2)N3CCc2ccc3ccncc3c2)c1 (as salt: oxalate) | 97 to 99
FC(F)(F)c1cccc(N2CCCN(CCc3ccc4ccncc4c3)CC2)c1 (as salt: oxalate) [Example 4] | 135 to 137
Clc1cccc(N2CCN(CCc3ccc4cccnc4c3)CC2)n1 (as salt: oxalate) [Example 10] | 170 to 172
